Data on one compound can be found in US20250197428A1, “INHIBITORS OF KIF18A AND USES THEREOF” (ACCENT THERAPEUTICS, INC., priority 2022, published 2025).

Each structure is given as a SMILES string. Read-outs that look alike come from different tables or passages of the source.

Data set [1] in a line: Bone marrow concentration in 28 day OVCAR-3 xenograft study. It counts as in vivo, mice. To be noted: NOD SCID, mouse, 28 day study; for concentration at 6 h: read-out: Bone marrow concentration at 6 h post-last dose; for concentration at 24 h: read-out: Bone marrow concentration at 24 h post-last dose. The protocol:
On Day 28, tissues were collected from animals. About 30-60 μL of whole blood was collected into tubes containing EDTA anticoagulant, and plasma was harvested by centrifugation at 4,000 g×5 min and stored at −80° C. until analysis. Plasma analysis followed the same protocol as for the Day 1 plasma analysis. Additionally, the femurs of the mice were cut and put in pre-weighed tubes. The bone marrow was harvested by centriguation at 8,000 g×15 min. Then, the total weight of both the bone marrow and the tube was recorded. The bone marrow was stored at −80° C. until analysis.
Samples were collected from animals 6 h after the last dose of compound and at 24 h after the last dose of compound.

For data set [2], the system named is human megakaryocyte (CFU-MK) progenitors from human bone marrow mononuclear cells. Briefly: Human megakaryocyte progenitor colony formation assay (CFU-MK). To be noted: 336 h, 14 days culture, adjusted for binding to assay buffer, read-out: Free-fraction adjusted CFU-MK IC50. In kind it is cell-based.
The nature of data set [3]: Caco-2 permeation assay, bidirectional permeability. In kind it is in vitro ADME. To be noted: human, Caco-2, pH 7.4, 5 μM, Papp(B-A)/Papp(A-B). A digest of the protocol:
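Bidirectional A→B and B→A transport of 5 μM compound in HBSS (10 mM HEPES, pH 7.4), receiver containing 2% BSA, 2 h at 37 °C on 14-day monolayers. Papp from LC-MS/MS peak areas; efflux ratio Papp(B-A)/Papp(A-B), plus recovery. Lucifer Yellow leakage <1% required for monolayer acceptance.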

The next data set deals with KIF18A (Homo sapiens (Human), UniProt Q8NI77). Nature of the data set: KIF18A Biochemical Assay (ATPase, ADP-Glo).
Sequence of KIF18A (Q8NI77 1-367): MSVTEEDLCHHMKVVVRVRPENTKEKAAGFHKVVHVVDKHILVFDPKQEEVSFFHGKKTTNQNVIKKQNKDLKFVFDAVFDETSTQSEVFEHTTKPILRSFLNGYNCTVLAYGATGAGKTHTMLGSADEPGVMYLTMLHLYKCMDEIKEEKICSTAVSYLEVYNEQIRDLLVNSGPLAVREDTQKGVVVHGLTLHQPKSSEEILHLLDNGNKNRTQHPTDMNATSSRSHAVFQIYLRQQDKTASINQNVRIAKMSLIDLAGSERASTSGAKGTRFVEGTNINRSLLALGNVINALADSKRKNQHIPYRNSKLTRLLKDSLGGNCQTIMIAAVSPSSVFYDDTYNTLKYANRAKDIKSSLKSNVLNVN
Sequence of KIF18A (P02550 whole entry partner): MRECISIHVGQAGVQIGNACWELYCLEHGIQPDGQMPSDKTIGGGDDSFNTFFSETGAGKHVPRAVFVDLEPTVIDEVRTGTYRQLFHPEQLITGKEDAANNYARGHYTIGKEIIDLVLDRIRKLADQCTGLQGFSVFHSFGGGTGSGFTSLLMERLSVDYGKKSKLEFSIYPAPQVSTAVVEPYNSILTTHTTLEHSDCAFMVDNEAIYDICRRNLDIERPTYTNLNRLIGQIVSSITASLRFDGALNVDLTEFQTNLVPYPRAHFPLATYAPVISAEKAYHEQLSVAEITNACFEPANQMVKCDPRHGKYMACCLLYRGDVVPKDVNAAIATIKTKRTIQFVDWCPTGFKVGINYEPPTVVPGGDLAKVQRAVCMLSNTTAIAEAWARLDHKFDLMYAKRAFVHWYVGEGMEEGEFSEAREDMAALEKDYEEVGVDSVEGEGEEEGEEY
Sequence of KIF18A (P02554 whole entry partner): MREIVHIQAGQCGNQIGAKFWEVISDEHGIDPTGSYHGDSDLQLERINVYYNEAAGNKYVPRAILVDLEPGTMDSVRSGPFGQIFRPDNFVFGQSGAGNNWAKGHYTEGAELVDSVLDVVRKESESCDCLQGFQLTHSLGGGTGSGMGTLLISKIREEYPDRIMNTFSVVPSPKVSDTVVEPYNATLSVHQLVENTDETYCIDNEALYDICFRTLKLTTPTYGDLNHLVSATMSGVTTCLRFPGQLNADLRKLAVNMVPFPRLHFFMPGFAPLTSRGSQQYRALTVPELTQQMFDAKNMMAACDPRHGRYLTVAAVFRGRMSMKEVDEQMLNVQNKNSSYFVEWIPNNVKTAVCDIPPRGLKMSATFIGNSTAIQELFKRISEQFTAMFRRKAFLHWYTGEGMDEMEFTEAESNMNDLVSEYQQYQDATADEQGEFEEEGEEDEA

`Cc1cc(NC(=O)c2ccc(NS(=O)(=O)CCO)cc2N2CC[C@@]3(C(F)F)C[C@H]3C2)nc(N2CCC(F)(F)CC2)n1` (single isomer, unassigned) [Example 29b]: the concentration at 6 h is 2800 ng/g in data set [1] (10 mg/kg QD oral) and 10500 ng/g in data set [1] (30 mg/kg QD oral). In addition, the concentration at 24 h in data set [1] (10 mg/kg QD oral) is 210 ng/g; in data set [1] (30 mg/kg QD oral), 900 ng/g. Besides, the IC50 in data set [2] is 110 nM; against KIF18A it was less than 100 nM. The efflux ratio at 2 h, 5 μM in data set [3] is no less than 10.
